Read-outs that look alike come from different tables or passages of the source. Marks after values point to notes of the source that are not given here.
How the values were obtained:
PfHPPD (SEQ ID No 46) = target: T1, PfHPPD (SEQ ID No 46) (Pseudomonas sp., UniProt P80064); experiment: HPPD activity in presence of inhibitor, HGD assay; type: biochemical, Pseudomonas fluorescens
T1 construct: made in house; host or cells: E. coli K-12 BL21, vector pSE420(RI)NX-PfHPPD
Procedure: With the HGD assay HPPD activity was measured at room temperature by adding appropriate amounts of HPPD to a solution of 200 mM Tris-HCl pH 7.6, 10 mM ascorbate, 20 μM FeSO4, 650 units of catalase, 8 μg HGA dioxygenase (HGA: homogentisate) and 600 μM HPP in a total volume of 1 ml. Initial reaction rates were determined from the increase in absorbance at 318 nm due to the formation of maleylacetoacetate (ε318=11,900 M-1 cm-1).
In cases, the symbol “>” is used this means that the value was far higher than the one indicated but could not be precisely calculated within in the range of concentration of inhibitor tested.
In the 1st column of Table 1, the HPPD employed in the assay is named and in the 2nd column of Table 1, the corresponding SEQ ID No of present invention is disclosed.

[1] = tested on: Control maize plants (EPSPS selectable marker gene, no HPPD variant); experiment: Greenhouse trial, maize T0 plants, leaf area damage; type: in vivo; conditions: for number of events, herbicide tolerance class 0 (41%-100% damaged leaf area) / number of events, herbicide tolerance class 1 (16%-40% damaged leaf area) / number of events, herbicide tolerance class 2 (6%-15% damaged leaf area) / number of events, herbicide tolerance class 3 (0%-5% damaged leaf area): maize Control
Procedure: (§1) Regenerated T0 events from tissue culture were transplanted into two inch square pots with synthetic soil (Fafard® Mix) and controlled-released fertilizer (Haifa Multicote™; polymer-coated controlled-release fertilizer, NPK Pro 18-6-12+Micronutrients) and cultivated in the greenhouse (GH) under supplementary high pressure sodium light for 12 days at a maximum of 30° C. during the day and a minimum of 22° C. at night. Fully recovered plants were transferred into five inch square pots filled with synthetic soil and control released fertilizer under the same environmental conditions. […] All herbicide treatments were conducted in a DeVries Tracker Sprayer system with standard application protocols, which are well known in the art. As a spray control T0 events have been sprayed with the adjunvant mixture lacking the herbicide.
A rating of “1” was assigned to plants having a moderate tolerance with 16% to 40% damage of total leaf area. A rating of “2” was assigned to plants with good tolerance within the range of 6% to 15% damage of total leaf area.

[2] = tested on: Non-transformed maize plants; experiment: Greenhouse trial, maize plants, leaf damage; type: in vivo; conditions: 25 g AI/ha
Procedure: as §1

wild type soybean Thorne = type: in vivo; conditions: scored after 21 days
[3] = tested on: transgenic soybean T1 plants expressing PfHPPD-G336W; type: in vivo; conditions: for number of events, herbicide tolerance class 0 (41%-100% damaged leaf area) / number of events, herbicide tolerance class 1 (16%-40% damaged leaf area) / number of events, herbicide tolerance class 2 (6%-15% damaged leaf area) / number of events, herbicide tolerance class 3 (0%-5% damaged leaf area): scored after 21 days
[4] = tested on: Ipomoea aristolochiaefolia; conditions: application at 6 leaf stage, assessment 14 days after application
[5] = 25 g AI/ha, evaluation 9 days after treatment
[6] = 50 g AI/ha, six days after application
[7] = 100 g AI/ha, six days after application
[8] = soybean Thorne (wt), 6.25 g AI/ha

T1 sequence (P80064 other isoform, or with tags, fused parts or gaps with the stated changes): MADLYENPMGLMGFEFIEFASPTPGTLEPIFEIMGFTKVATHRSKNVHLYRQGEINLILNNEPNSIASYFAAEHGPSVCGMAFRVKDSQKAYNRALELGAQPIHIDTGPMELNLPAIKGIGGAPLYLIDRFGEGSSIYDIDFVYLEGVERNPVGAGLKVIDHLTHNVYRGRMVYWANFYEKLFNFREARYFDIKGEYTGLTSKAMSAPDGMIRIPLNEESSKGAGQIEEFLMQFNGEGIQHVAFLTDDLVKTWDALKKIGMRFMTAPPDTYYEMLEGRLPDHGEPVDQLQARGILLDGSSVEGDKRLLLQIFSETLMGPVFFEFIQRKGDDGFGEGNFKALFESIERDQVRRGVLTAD

Compound: CSc1c(C(F)(F)F)ccc(C(=O)Nc2nnnn2C)c1Cl
- inhibition at 0.2 µM (PfHPPD (SEQ ID No 46); 0.2 μM inhibitor): 76%
- IC50 (PfHPPD (SEQ ID No 46); room temperature, 600 μM HPP, molar concentration, read-out: pI50 (converted)): 100 nM
- bleaching symptoms ([1]; all control events, 25 g of AI/ha): severe bleaching symptoms
- leaf damage ([1]; control maize T0 events without HPPD variant, 25 g AI/ha): 100%
- number of events, herbicide tolerance class 0 (41%-100% damaged leaf area) [1, 5]: 5*
- number of events, herbicide tolerance class 1 (16%-40% damaged leaf area) [1, 5]: 0
- number of events, herbicide tolerance class 2 (6%-15% damaged leaf area) [1, 5]: 0
- number of events, herbicide tolerance class 3 (0%-5% damaged leaf area) [1, 5]: 0
- number of events, herbicide tolerance class 0 (41%-100% damaged leaf area) [1, 6]: 4
- number of events, herbicide tolerance class 1 (16%-40% damaged leaf area) [1, 6]: 0
- number of events, herbicide tolerance class 2 (6%-15% damaged leaf area) [1, 6]: 0
- number of events, herbicide tolerance class 3 (0%-5% damaged leaf area) [1, 6]: 0
- number of events, herbicide tolerance class 0 (41%-100% damaged leaf area) [1, 7]: 50
- number of events, herbicide tolerance class 1 (16%-40% damaged leaf area) [1, 7]: 0
- number of events, herbicide tolerance class 2 (6%-15% damaged leaf area) [1, 7]: 0
- number of events, herbicide tolerance class 3 (0%-5% damaged leaf area) [1, 7]: 0
- leaf damage [2]: 100%
- number of events, herbicide tolerance class 0 (41%-100% damaged leaf area) (wild type soybean Thorne; [8]): 4
- number of events, herbicide tolerance class 1 (16%-40% damaged leaf area) (wild type soybean Thorne; [8]): 0
- number of events, herbicide tolerance class 2 (6%-15% damaged leaf area) (wild type soybean Thorne; [8]): 0
- number of events, herbicide tolerance class 3 (0%-5% damaged leaf area) (wild type soybean Thorne; [8]): 0
- number of events, herbicide tolerance class 0 (41%-100% damaged leaf area) (wild type soybean Thorne; soybean Thorne, 25 g AI/ha): 4
- number of events, herbicide tolerance class 1 (16%-40% damaged leaf area) (wild type soybean Thorne; soybean Thorne, 25 g AI/ha): 0
- number of events, herbicide tolerance class 2 (6%-15% damaged leaf area) (wild type soybean Thorne; soybean Thorne, 25 g AI/ha): 0
- number of events, herbicide tolerance class 3 (0%-5% damaged leaf area) (wild type soybean Thorne; soybean Thorne, 25 g AI/ha): 0
- number of events, herbicide tolerance class 0 (41%-100% damaged leaf area) ([3]; 6.25 g AI/ha): 0
- number of events, herbicide tolerance class 1 (16%-40% damaged leaf area) ([3]; 6.25 g AI/ha): 0
- number of events, herbicide tolerance class 2 (6%-15% damaged leaf area) ([3]; 6.25 g AI/ha): 0
- number of events, herbicide tolerance class 3 (0%-5% damaged leaf area) ([3]; 6.25 g AI/ha): 12
- number of events, herbicide tolerance class 0 (41%-100% damaged leaf area) ([3]; 25 g AI/ha): 0
- number of events, herbicide tolerance class 1 (16%-40% damaged leaf area) ([3]; 25 g AI/ha): 0
- number of events, herbicide tolerance class 2 (6%-15% damaged leaf area) ([3]; 25 g AI/ha): 0
- number of events, herbicide tolerance class 3 (0%-5% damaged leaf area) ([3]; 25 g AI/ha): 16
- number of events, herbicide tolerance class 0 (41%-100% damaged leaf area) ([3]; 50 g AI/ha): 0
- number of events, herbicide tolerance class 1 (16%-40% damaged leaf area) ([3]; 50 g AI/ha): 4
- number of events, herbicide tolerance class 2 (6%-15% damaged leaf area) ([3]; 50 g AI/ha): 0
- number of events, herbicide tolerance class 3 (0%-5% damaged leaf area) ([3]; 50 g AI/ha): 0
- number of events, herbicide tolerance class 0 (41%-100% damaged leaf area) ([3]; 75 g AI/ha): 0
- number of events, herbicide tolerance class 1 (16%-40% damaged leaf area) ([3]; 75 g AI/ha): 3
- number of events, herbicide tolerance class 2 (6%-15% damaged leaf area) ([3]; 75 g AI/ha): 1
- number of events, herbicide tolerance class 3 (0%-5% damaged leaf area) ([3]; 75 g AI/ha): 0
- herbicide tolerance ([3]; in vivo): high tolerance
- Efficacy (%) Ipomoea aristolochiaefolia ([4]; (A) 25 g ai/ha): 10%
- Efficacy (%) Ipomoea aristolochiaefolia ([4]; (A) 50 g ai/ha): 15%

Reference: patent US10159249B2 (BAYER CROPSCIENCE AKTIENGESELLSCHAFT, priority 2013, dated 2018)
